# Test results reported in patent US20070128217A1 (priority 2003, published 2007).
# Legend:
# [1] = test system: recombinant human anti-SARS-CoV antibody 03-018; format: binding; set-up: Binding of antibody 03-018 to linear peptides of the N protein of SARS-CoV Urbani / Binding of antibody 03-018 to looped/cyclic peptides of the N protein of SARS-CoV Urbani: unit not given here
# [2] = test system: rabbit serum obtained by immunizing a rabbit with the SARS-CoV strain Frankfurt 1; format: binding; set-up: Binding of a rabbit serum to linear peptides / Binding of a rabbit serum to looped peptides / Rabbit serum linear peptides / Rabbit serum looped peptides / Binding of a rabbit serum to linear peptides of protein N of SARS-CoV Urbani (Rabbit serum linear peptides) / Binding of a rabbit serum to looped/cyclic peptides of protein N of SARS-CoV Urbani (Rabbit serum looped peptides): unit not given here
# [3] = test system: control sera (pooled serum of ten healthy LUMC hospital workers; commercial negative donor pooled serum from the Dutch bloodbank); format: binding, human; set-up: Binding of Control serum LUMC to linear peptides / Binding of Control serum Blood-bank to linear peptides / Binding of Control serum LUMC to looped peptides / Binding of Control Serum Blood-Bank to Looped peptides / Binding of Control serum LUMC to linear peptides of the protein M of SARS-CoV Urbani / Binding of Control serum Blood-bank to linear peptides of the protein M of SARS-CoV Urbani / Binding of Control serum LUMC to looped peptides of the protein M of SARS-CoV Urbani / Binding of Control Serum Blood-Bank to Looped peptides of the protein M of SARS-CoV Urbani: unit not given here
# [4] = test system: antibodies in sera from SARS patients (sera 1a, 1b, 2, 6, 37, 62, London, SARS-yellow, SARS-green); format: binding, human; set-up: Binding of serum 6 to linear peptides of protein X1 of SARS-CoV Urbani / Binding of serum 37 to linear peptides of protein X1 of SARS-CoV Urbani / Binding of serum 6 to looped/cyclic peptide (PEPSCAN-ELISA) / Binding of serum 37 to looped/cyclic peptide (PEPSCAN-ELISA) / Binding of serum 37 to looped/cyclic peptides of protein X1 of SARS-CoV Urbani / Binding of serum 6 to linear peptides of protein X2 / Binding of serum 37 to linear peptides of protein X2 / Binding of serum 37 to looped/cyclic peptides of protein X2 of SARS-CoV Urbani / Binding of serum 6 to linear peptides of protein M of SARS-CoV Urbani / Binding of serum 37 to linear peptides of protein M of SARS-CoV Urbani / Binding of serum 6 to looped/cyclic peptides of protein M of SARS-CoV Urbani / Binding of serum 37 to looped/cyclic peptides of protein M of SARS-CoV Urbani / Binding of serum 6 to linear peptides of protein X3 of SARS-CoV Urbani / Binding of serum 37 to linear peptides of protein X3 of SARS-CoV Urbani / Binding of serum 37 to looped/cyclic peptides of protein X3 of SARS-CoV Urbani / Binding of serum 6 to linear peptides of protein X4 of SARS-CoV Urbani / Binding of serum 37 to linear peptides of protein X4 of SARS-CoV Urbani / Binding of serum 37 to looped/cyclic peptides of protein X4 of SARS-CoV Urbani / Binding of serum 6 to linear peptides of protein X5 of SARS-CoV Urbani / Binding of serum 37 to linear peptides of protein X5 of SARS-CoV Urbani / Binding of serum 37 to looped/cyclic peptides of protein X5 of SARS-CoV Urbani / Binding of serum 6 to linear peptides of protein N of SARS-CoV Urbani / Binding of serum 37 to linear peptides of protein N of SARS-CoV Urbani / Binding of serum 6 to linear peptide (PEPSCAN-ELISA) / Binding of serum 1a to looped/cyclic peptides of protein N of SARS-CoV Urbani / Binding of serum 1b to looped/cyclic peptides of protein N of SARS-CoV Urbani / Binding of serum 2 to looped/cyclic peptides of protein N of SARS-CoV Urbani / Binding of serum 6 to looped/cyclic peptides of protein N of SARS-CoV Urbani / Binding of serum 37 to looped/cyclic peptides of protein N of SARS-CoV Urbani / Binding of serum 62 to looped/cyclic peptides of protein N of SARS-CoV Urbani / Binding of serum London to looped/cyclic peptides of protein N of SARS-CoV Urbani / Binding of serum SARS-green to looped/cyclic peptides of protein N of SARS-CoV Urbani: unit not given here
Sequence,Binding of antibody 03-018 to linear peptides of the N protein of SARS-CoV Urbani [1],Binding of antibody 03-018 to looped/cyclic peptides of the N protein of SARS-CoV Urbani [1],Binding of a rabbit serum to linear peptides of protein N of SARS-CoV Urbani (Rabbit serum linear peptides) [2],Binding of a rabbit serum to looped/cyclic peptides of protein N of SARS-CoV Urbani (Rabbit serum looped peptides) [2],Binding of Control Serum Blood-Bank to Looped peptides [3],Binding of Control serum Blood-bank to linear peptides [3],Binding of Control serum LUMC to linear peptides [3],Binding of Control serum LUMC to looped peptides [3],also measured
ARMASGGGETALALL,0.1,0.3,0.2,0.0,0.6,0.8,0.7,0.8,–
IKLDDKDPQFKDNVI,0.1,0.2,0.1,0.3,–,–,–,–,Control Serum Blood-Bank Looped peptides [3]: 0.6; Control serum Blood-bank linear peptides [3]: 0.9; Control serum LUMC linear peptides [3]: 0.9; Control serum LUMC looped peptides [3]: 0.6
LDDKDPQFKDNVILL,0.1,0.3,0.1,0.2,–,–,–,–,–
LPQGTTLPKGFYAEG,0.1,0.3,0.1,0.7,0.9,0.8,0.8,0.8,–
NNAATVLQLPQGTTL,0.1,0.3,0.2,0.4,0.8,0.9,0.9,0.8,–
NSPARMASGGGETAL,0.1,0.2,0.3,0.3,0.3,0.9,0.7,0.4,–
PQFKDNVILLNKHID,0.1,0.2,0.2,0.4,–,–,–,–,Control Serum Blood-Bank Looped peptides [3]: 0.7; Control serum Blood-bank linear peptides [3]: 0.7; Control serum LUMC linear peptides [3]: 0.7; Control serum LUMC looped peptides [3]: 0.8
PRQKRTATKQYNVTQ,0.1,0.2,–,–,1.0,1.0,0.9,0.9,Recognition of the peptide by the rabbit serum [2]: recognized
QFKDNVILLNKHIDA,0.1,0.3,0.1,0.7,–,–,–,–,Control Serum Blood-Bank Looped peptides [3]: 0.9; Control serum Blood-bank linear peptides [3]: 0.6; Control serum LUMC linear peptides [3]: 0.6; Control serum LUMC looped peptides [3]: 0.8
QGTTLPKGFYAEGSR,0.1,0.2,0.1,0.6,0.7,0.8,0.7,0.7,–
QKRTATKQYNVTQAF,0.1,0.2,–,–,0.8,0.8,0.7,0.8,Recognition of the peptide by the rabbit serum [2]: recognized
QLPQGTTLPKGFYAE,0.1,0.2,0.2,0.4,0.6,0.9,0.7,0.6,–
RTATKQYNVTQAFGR,0.1,0.2,–,–,0.8,0.9,0.8,0.9,Recognition of the peptide by the rabbit serum [2]: recognized
STPGSSRGNSPARMA,0.1,0.2,–,–,–,–,–,–,Recognition of the peptide by the rabbit serum [2]: recognized; Binding of serum 1a to linear peptide (PEPSCAN-ELISA) [4]: 0.5; Binding of serum 1a to looped/cyclic peptides of protein N of SARS-CoV Urbani [4]: 0.3; Binding of serum 1b to linear peptide (PEPSCAN-ELISA) [4]: 0.3; Binding of serum 1b to looped/cyclic peptides of protein N of SARS-CoV Urbani [4]: 0.2; Binding of serum 2 to linear peptide (PEPSCAN-ELISA) [4]: 0.4; Binding of serum 2 to looped/cyclic peptides of protein N of SARS-CoV Urbani [4]: 0.4; Binding of serum 6 to linear peptide (PEPSCAN-ELISA) [4]: 0.3; Binding of serum 6 to looped/cyclic peptides of protein N of SARS-CoV Urbani [4]: 0.4; Binding of serum 37 to linear peptide (PEPSCAN-ELISA) [4]: 0.7; Binding of serum 37 to looped/cyclic peptides of protein N of SARS-CoV Urbani [4]: 0.6; Binding of serum 62 to linear peptide (PEPSCAN-ELISA) [4]: 0.8; Binding of serum 62 to looped/cyclic peptides of protein N of SARS-CoV Urbani [4]: 0.5; Binding of serum London to linear peptide (PEPSCAN-ELISA) [4]: 0.5; Binding of serum London to looped/cyclic peptides of protein N of SARS-CoV Urbani [4]: 0.5; Binding of serum SARS-green to linear peptide (PEPSCAN-ELISA) [4]: 0.8; Binding of serum SARS-green to looped/cyclic peptides of protein N of SARS-CoV Urbani [4]: 0.2; Binding of serum SARS-yellow to linear peptide (PEPSCAN-ELISA) [4]: 0.7; Binding of serum SARS-yellow to looped/cyclic peptides of protein N of SARS-CoV Urbani [4]: 0.5
